Experimental data from patent publication EP3964204A1, “LSD1 INHIBITORS FOR USE IN THE TREATMENT AND PREVENTION OF FIBROSIS OF TISSUES” (Université d'Aix-Marseille, priority 2020, dated 2022).

Assays:
LSD1 = target: T1, LSD1 (Mus musculus, UniProt Q6ZQ88); test: Cardiac LSD1 activity in explanted hearts at end of treatment (Epigentec kit); type: in vivo, mice; details: 1.5 mg / Kg intragastric gavage from 10 days after experimental infarction for three weeks, Figure 1
T1 construct: from tissue; host or cells: explanted hearts of C57BL/6 mice
Experimental: The LSD1 inhibitor (1.5 mg / Kg) was administered by intragastric gavage 10 days after experimental infarction and for three weeks. Losartan (5mg/kg) was also administered by oral gavage one week after experimental infarction and for three weeks,
The severity of the infarction was assessed by echocardiography 10 days after surgery. LSD1 activity was measured at the end of treatment (Epigentec kit) in explanted hearts. […] The ventricular wall has thickened when compared to the group treated with losartan Student -t-test ** p≤ 0.001 (Figure 2 B). Left ventricular function has improved. • 2- Ischemia -reperfusion model : transient ligation of descending anterior left coronary (30 min); followed by reperfusion

C57BL/6 adult mice [1] = test: Ischemia-reperfusion model (transient ligation of descending anterior left coronary 30 min, then reperfusion); type: in vivo
Experimental: Both groups were subjected to experimental infarction. A control group received no treatment. Two myocardial infraction models were used, respectively a permanent infarction model and an ischemia -reperfusion model. The LSD1 inhibitor (1.5 mg / Kg) was administered by intragastric gavage 10 days after experimental infarction and for three weeks. Losartan (5mg/kg) was also administered by oral gavage one week after experimental infarction and for three weeks, • 1: experimental infarctus : • 2.: 10 days later: control echo : pretreatment echo: • 3: posttreatment echo one month later The severity of the infarction was assessed by echocardiography 10 days after surgery. LSD1 activity was measured at the end of treatment ([…] kit) in explanted hearts. […] The ventricular wall has thickened when compared to the group treated with losartan Student -t-test ** p≤ 0.001 (Figure 2 B). Left ventricular function has improved. • 2- Ischemia -reperfusion model : transient ligation of descending anterior left coronary (30 min); followed by reperfusion The results were similar in the ischemia / reperfusion model. […] Student -t-test **p≤ 0.001 The shortening fraction (SF) is an index of contractile activity : the contraction of the walls of ventricle is responsible of the shortening of the distance between each wall. This is calculated by dividing the distance between the walls at diastole minus the distance between the walls at systole by the distance between the walls at diastole (in %) Shortening fraction x Volume of chamber = ejection fraction (% of the chamber volume emptied at each contraction)

C57BL/6 adult mice [2] = test: Permanent infarction model (permanent ligation of descending anterior left coronary, no reperfusion); type: in vivo
Experimental: Both groups were subjected to experimental infarction. A control group received no treatment. Two myocardial infraction models were used, respectively a permanent infarction model and an ischemia -reperfusion model. The LSD1 inhibitor (1.5 mg / Kg) was administered by intragastric gavage 10 days after experimental infarction and for three weeks. Losartan (5mg/kg) was also administered by oral gavage one week after experimental infarction and for three weeks, • 1: experimental infarctus : • 2.: 10 days later: control echo : pretreatment echo: • 3: posttreatment echo one month later The severity of the infarction was assessed by echocardiography 10 days after surgery. LSD1 activity was measured at the end of treatment ([…] kit) in explanted hearts. […] The ventricular wall has thickened when compared to the group treated with losartan Student -t-test ** p≤ 0.001 (Figure 2 B). Left ventricular function has improved. • 2- Ischemia -reperfusion model : transient ligation of descending anterior left coronary (30 min); followed by reperfusion

SMILES: Cl.Cl.c1ccc([C@@H]2C[C@H]2NC2CCNCC2)cc1 [GSK-LSD1, N-[(1R,2S)-2-phenylcyclopropyl]piperidin-4-amine dihydrochloride]
- cardiac LSD1 activity (LSD1): significantly reduced
- myocardial fibrosis area (LV) (C57BL/6 adult mice [1]; ischemia / reperfusion, 1.5 mg / Kg gavage, three weeks, compared with the non treated group, p≤ 0.001, Figure 3 A): prevented fibrosis
- Left ventricular function (C57BL/6 adult mice [1]; ischemia / reperfusion, M-mode echocardiography, compared to non-treated group and pretreatment, p≤ 0.001, Figure 3 B): fully restored left ventricular function
- shortening fraction (SF) (C57BL/6 adult mice [1]; post administration, normal SF in healthy mice 60%, post infarct 20%): 60%
- Left ventricular function (C57BL/6 adult mice [2]; 1.5 mg / Kg gavage, three weeks): has improved
- left ventricular wall thickness (C57BL/6 adult mice [2]; 1.5 mg / Kg gavage, three weeks, compared to the group treated with losartan, p≤ 0.001, Figure 2 B): has thickened
- myocardial fibrosis area (left ventricle : LV) (C57BL/6 adult mice [2]; 1.5 mg / Kg intragastric gavage from 10 days after infarction for three weeks, compared to Losartan (5mg/kg), Figure 2 A): significantly reduced fibrosis
